Measurements from article PMC9404985, “Development of Dicationic Bisguanidine-Arylfuran Derivatives as Potent Agents against Gram-Negative Bacteria” (Antibiotics, 2022).

Key:
[1] = system: P. putida (NBRC/ATCC #100650); experiment: Antibacterial resazurin assay, laboratory strain
[2] = system: Plasmodium falciparum; parameters: method as in PMID 28674055; details: erythrocyte stage; cited from earlier work
[3] = system: Trypanosoma cruzi; parameters: method as in earlier work; details: PubChem AID 1314398; read-out: effective against Trypanosoma cruzi; cited from earlier work
[4] = system: E. coli (CCUG #67180); experiment: Antibacterial activity against isolates (Omnilog, Biolog redox dye); assay type: cell-based, Escherichia coli
Description: (§1) The antibacterial activities of eight compounds (1, 3, 4, 6, 8, 10, 16, and 17) were tested against 10 different isolates of Gram-negative bacteria from human and other sources, two E. coli (CCUG #67180 and CCUG #17620/ATCC #25922, control strain), two K. pneumoniae (CCUG #58547 and CCUG #225T), two P. aeruginosa (CCUG #17619 and CCUG #59347), two A. baumannii (CCUG #57035 and CCUG #57250), E. cloacae (CCUG #6323T), and E. hormaechei (CCUG #58962) in a 96-well plate format. The compounds to test were 3-fold diluted in six steps in cation-adjusted Mueller-Hinton (ca-MH) broth to final concentrations spanning from 30 to 0.12 µM, i.e., a 1667–416,667 times dilution from the 50 mM stocks. Bacterial mass from the ten isolates grown overnight on horse blood or Mueller–Hinton agar plates was suspended in ca-MH and adjusted to a final inoculum cell density of ~5 × 10^5 CFU/mL. For all assays, Biolog redox dye A diluted 100× from the stock solution was used for measurements of all ten isolates (up to a total volume of 120 µL per well). All plates included one well per isolate with only inoculum and dye but no test compound (i.e., positive control) and one well per isolate with inoculum, dye and DMSO diluted 1667×, corresponding to the DMSO concentration in the wells with the highest concentration of test compound. All measurements were performed using the Omnilog microplate reader (Biolog, Hayward, CA, USA) where the 96-well plates were read at 15 min intervals for a total of 24 h at 37 °C.

[5] = system: E. coli (CCUG #17620/ ATCC #25922); experiment: as above; assay type: cell-based, Escherichia coli
Description: as §1

[6] = system: A. baumannii (CCUG #57250); experiment: as above; assay type: cell-based, Acinetobacter baumannii
Description: as §1

[7] = system: E. hormaechei (CCUG #58962); experiment: as above; assay type: cell-based, Enterobacter hormaechei
Description: as §1, with “The compounds to test were 3-fold diluted in six steps in cation-adjusted Mueller-Hinton (ca-MH) broth to final concentrations spanning from 30 to 0.12 µM, i.e., a 1667–416,667 times dilution from the 50 mM stocks.” left out

[8] = system: E. cloacae (CCUG #6323T); experiment: as above; assay type: cell-based, Enterobacter cloacae
Description: as §1

[9] = system: K. pneumoniae (CCUG #225T); experiment: as above; assay type: cell-based, Klebsiella pneumoniae
Description: as §1

[10] = system: A. baumannii (CCUG #57035); experiment: as above; assay type: cell-based, Acinetobacter baumannii
Description: as §1, with “The compounds to test were 3-fold diluted in six steps in cation-adjusted Mueller-Hinton (ca-MH) broth to final concentrations spanning from 30 to 0.12 µM, i.e., a 1667–416,667 times dilution from the 50 mM stocks.” left out

[11] = SI = ((EC50 MCF-7 + EC50 HepG2)/2)/EC50 bacterial strain
[12] = Escherichia coli, ca-MH broth, 24 h, 37 °C
[13] = Enterobacter hormaechei, CCUG58962, ca-MH broth, 24 h, 37 °C
[14] = Enterobacter cloacae, ca-MH broth, 24 h, 37 °C
[15] = Klebsiella pneumoniae, ca-MH broth, 24 h, 37 °C
[16] = Acinetobacter baumannii, CCUG57035, ca-MH broth, 24 h, 37 °C

N=C(N)Nc1ccc(-c2ccc(-c3ccc(NC(=N)N)cc3Cl)o2)c(Cl)c1 [Compound 1, 2,5-Bis(2-chloro-4-guanidinophenyl)furan]
EC50 ([1]; Pseudomonas putida, ATCC100650, 18 h, read-out: Ppu EC50, laboratory strain, 18 h, 37 °C, AlamarBlue): 258 µM | EC90 ([1]; Pseudomonas putida, ATCC100650, 18 h, read-out: Ppu EC90): 517 µM | Selectivity index P. putida ([1]; mean of MCF-7 and HepG2 EC50 over bacterial EC50, laboratory strain): 0.2 | EC50 [2]: 0.59 µM | EC50 [3]: 0.29 µM | EC90 ([4]; Escherichia coli, CCUG67180, 24 h, ca-MH broth, 24 h, 37 °C): 3.8 µM | EC50 ([4]; Escherichia coli, CCUG67180, ca-MH broth, 24 h, 37 °C): 3.2 µM | Selectivity index E. coli (CCUG #67180) [4, 11]: 12.2 | EC50 [5, 12]: 3.9 µM | EC90 [5, 12]: 6.3 µM | Selectivity index E. coli (CCUG #17620/ ATCC #25922) [5, 11]: 9.9 | EC90 ([6]; Acinetobacter baumannii, CCUG57250, 24 h, ca-MH broth, 24 h, 37 °C): 6.6 µM | EC50 ([6]; Acinetobacter baumannii, CCUG57250, ca-MH broth, 24 h, 37 °C): 4.4 µM | Selectivity index A. baumannii (CCUG #57250) [6, 11]: 8.7 | EC50 [7, 13]: 7.7 µM | EC90 [7, 13]: 9.1 µM | Selectivity index E. hormaechei (CCUG #58962) [7, 11]: 5.0 | EC50 [8, 14]: 1 µM | EC90 [8, 14]: 1.2 µM | Selectivity index E. cloacae (CCUG #6323T) [8, 11]: 37.2 | EC50 [9, 15]: 2.7 µM | EC90 [9, 15]: 3.2 µM | Selectivity index K. pneumoniae (CCUG #225T) [9, 11]: 14.4 | EC50 [10, 16]: 4.7 µM | EC90 [10, 16]: 6.3 µM | Selectivity index A. baumannii (CCUG #57035) [10, 11]: 8.3
